{
  "source": "patent US20260355142A1",
  "about": "“AMORPHOUS OTE[…] COMPOSITIONS AND USES THEREOF AND DOSAGE REGIMENS FOR OTENAPROXESUL” (ANTIBE THERAPEUTICS INC., priority 2022, published 2026)",
  "key": {"[1]": {"tested_on": "ALT and/or AST", "assay": "Phase 2b study, liver transaminase elevations", "assay_type": "in vivo, human", "description": "(§1) Study visits occurred on Day 1, Day 4, and Day 14 of the 14-day treatment phase and included WOMAC evaluations, blood samples for thromboxane B2 TXB2 and pharmacokinetic (PK) testing. The safety of otenaproxesul was evaluated through monitoring for adverse events (AEs), changes in physical examinations, vital signs measurements, and clinical laboratory evaluations.\n(§2) All patients receiving any amount of study treatment (otenaproxesul or placebo) were included in the safety analysis. Each treatment arm was evaluated separately. In addition to the evaluation and categorization of treatment-emergent adverse events (TEAEs), listings of laboratory test results collected at Baseline and during the study were generated. Descriptive statistics summarizing the changes in those laboratory tests over time were presented.\nThe majority of otenaproxesul liver associated TEAEs were alanine aminotransferase (ALT) and/or aspartate aminotransferase (AST) liver transaminase elevations. None of these TEAEs were observed during the 14-day treatment period but were captured at the Day 24/Early Termination (ET) follow up assessment."}, "[2]": {"tested_on": "ALT and AST", "assay": "Analysis of liver transaminase elevations over the clinical studies", "assay_type": "in vivo, human", "description": "These LTEs were detected after the patients had completed their full treatment course.\nWhen liver safety findings are observed, cumulative naproxen metabolite plasma drug exposure over the prescribed treatment period exceeded 4000 μg*hr/mL."}, "[3]": {"assay": "Phase 2b study, safety (treatment-emergent adverse events)", "assay_type": "in vivo, human", "details": "for hypertension or blood pressure increased: 2 patients", "description": "as §1\nPatients were followed for safety for up to 24 days following initiation of treatment. A final visit for safety assessments occurred upon study completion on Day 24 or early termination.\nas §2"}, "[4]": {"assay": "Solubility in simulated intestinal fluid", "assay_type": "physicochemical", "details": "0.5 wt % SIF", "excerpt": "1 compared to crystalline otenaproxesul in simulated intestinal fluid (SIF)."}, "[5]": {"assay": "Rat pharmacokinetics of otenaproxesul amorphous dispersion (Example 19)", "assay_type": "in vivo, Rats", "details": "HED 260 mg once daily", "description": "Rats were administered five treatment doses of the otenaproxesul amorphous solid dispersion (i.e., exemplary ASD no. 1 (35% drug: 65% polymer by weight)) and a crystalline otenaproxesul control dose. […] One group of rats was administered a human equivalent dose of 208 mg twice daily (416 mg total daily dose). Crystalline otenaproxesul was administered at the no observed adverse effect level (NOAEL) dose equivalent to a human dose of 260 mg once daily.\nPharmacokinetic data was evaluated on M25 plasma naproxen concentrations at 60 minutes post administration, Day 1 M25 plasma exposure (AUC0-24) and Day 4 M25 plasma exposure (AUC0-Last). Assessment of dose proportional characteristics for both M25 plasma concentration and AUC exposure were measured.\nThe human equivalent dose (HED) is related to the administered rat dose by an allometric scaling formula, for example: HED (mg)=([rat dose in mg/kg×0.16]×65 kg)."}, "[6]": {"tested_on": "TXB2", "assay": "Pharmacodynamics in Beagle dogs, plasma TXB2", "assay_type": "in vivo", "details": "15 mg/kg, Day 1 and Day 4 pre-treatment", "description": "The pharmacokinetics of five different formulations of otenaproxesul (formerly ATB-346) were evaluated in Beagle dogs. Five groups of dogs (n=3/group) were orally administered their assigned formulations once daily for four days. Blood samples were taken for a full 24-hour PK profile on Day 1 and on Day 4.\nGroup 1 was administered crystalline otenaproxesul, Group 2 was administered milled crystalline otenaproxesul, Group 3 was administered micro-milled crystalline otenaproxesul, Group 4 was administered exemplary ASD no. 1 (see Example 7A above) and Group 5 was administered exemplary ASD no. 4 (see Example 7A above). Dose administered was 15 mg/kg (human equivalent dose of 525 mg).\nPharmacodynamic assessment of TXB2 and PGE2 plasma concentrations were assessed on: • Day 1, one hour post treatment • Day 1, 12 hours post treatment • Day 4, pre-treatment • Day 4, one hour post treatment • Day 4, 12 hours post treatment."}, "[7]": {"assay": "H2S release / formulation stability in simulated intestinal fluid", "details": "SIF, 1 mg/ml, 37° C., 5% CO2", "description": "Assay design: 1 mg of exemplary ASD no. 1 and crystalline otenaproxesul were weighed in separate glass vials. SIF was added to prepare a 1 mg/ml solution which was incubated at 37° C. with 5% CO2. 120 μl was removed at 0.5, 1, 2, 3, 4 and 8 hrs and quenched in DPD (N,N-dimethyl-p-phenylenediamine sulfate) and FeCl3 solutions. A calibration curve was prepared to quantify amount of H2S released. A blank and 10 mM stock was also analyzed. The methylene blue was analyzed using HPLC."}},
  "note": "“Also recorded” adds a separate entry of the source.",
  "data": [
    {"compound": "COc1ccc2cc([C@H](C)C(=O)Oc3ccc(C(N)=S)cc3)ccc2c1", "note": "[otenaproxesul, (S)-4-carbamothioylphenyl 2-(6-methoxynaphthalen-2-yl) propanoate]", "values": [
      {"measurement": "patients with treatment-related >3×ULN ALT and/or AST", "setting": "[1]; 150 mg (6/61)", "result": 9.8, "unit": "%"},
      {"measurement": "patients with treatment-related increases in ALT and/or AST", "setting": "[1]; 150 mg (6/61)", "result": 9.8, "unit": "%"},
      {"measurement": "patients with treatment-related >3×ULN ALT and/or AST", "setting": "[1]; 200 mg (9/125)", "result": 7.2, "unit": "%"},
      {"measurement": "patients with treatment-related increases in ALT and/or AST", "setting": "[1]; 200 mg (9/125)", "result": 7.2, "unit": "%"},
      {"measurement": "patients with treatment-related >3×ULN ALT and/or AST", "setting": "[1]; 250 mg (17/132)", "result": 12.9, "unit": "%"},
      {"measurement": "patients with treatment-related increases in ALT and/or AST", "setting": "[1]; 250 mg (17/132)", "result": 12.9, "unit": "%"},
      {"measurement": "adverse liver effects (transient elevations of liver transaminases)", "setting": "[2]; multiple dose 150, 200 or 250 mg for seven days", "result": "no observed adverse liver effects"},
      {"measurement": "liver transaminase elevations", "setting": "[2]; multiple dose 150, 200 or 250 mg, 14 days or less", "result": "not detected"},
      {"measurement": "cumulative plasma naproxen exposure at which LTEs are not observed", "setting": "[2]; over the prescribed treatment", "result": "≤ 4000", "unit": "µg·h/mL"},
      {"measurement": "cumulative naproxen plasma exposure when liver safety findings are observed", "setting": "[2]; over the prescribed treatment period", "result": "exceeded 4000 μg*hr/mL"},
      {"measurement": "patients with dose-related liver transaminase elevation", "setting": "[2]; phase 2 study", "result": "approximately 10%"},
      {"measurement": "liver transaminase elevations", "setting": "[2]; single dose 25 mg to 2000 mg (crystalline)", "result": "not detected; also recorded: no observed adverse liver effects"},
      {"measurement": "hypertension or hypotension events", "setting": "[3]; 150 mg", "result": "No patients"},
      {"measurement": "patients with TEAEs", "setting": "[3]; 150 mg", "result": 37.7, "unit": "%"},
      {"measurement": "hypotension", "setting": "[3]; 200 mg, 1 patient", "result": 0.8, "unit": "%"},
      {"measurement": "hypertension or blood pressure increased", "setting": "[3]; 200 mg", "result": 1.6, "unit": "%"},
      {"measurement": "patients with TEAEs", "setting": "[3]; 250 mg", "result": 43.9, "unit": "%"},
      {"measurement": "hypertension or blood pressure increased", "setting": "[3]; 250 mg", "result": 1.5, "unit": "%"},
      {"measurement": "TEAE headache", "setting": "[3]; all otenaproxesul groups", "result": 5.0, "unit": "%"},
      {"measurement": "TEAE hepatic enzyme increased", "setting": "[3]; all otenaproxesul groups", "result": 8.2, "unit": "%"},
      {"measurement": "patients with at least 1 TEAE", "setting": "[3]; all otenaproxesul groups", "result": 40.9, "unit": "%"},
      {"measurement": "gastrointestinal disorder TEAEs", "setting": "[3]; all otenaproxesul groups, 14-day treatment", "result": 14.5, "unit": "%"},
      {"measurement": "tolerability", "setting": "[3]; all three doses, 14 days", "result": "well tolerated at all three administered doses"},
      {"measurement": "discontinuation due to gastrointestinal TEAEs", "setting": "[3]; all three treatment arms", "result": "none were discontinued due to TEAEs related to gastrointestinal adverse effects"},
      {"measurement": "serum creatinine", "setting": "[3]; one patient, 200 mg for 14 days, Day 24", "result": 1.5, "unit": "×ULN"}
    ]},
    {"compound": "COc1ccc2cc([C@H](C)C(=O)Oc3ccc(C(N)=S)cc3)ccc2c1", "note": "[crystalline otenaproxesul]", "values": [
      {"measurement": "solubility at 2 h", "setting": "[4]", "result": 51, "unit": "µg/mL"},
      {"measurement": "AUC increase between Day 1 and Day 4", "setting": "[5]; female rats", "result": 60, "unit": "%"},
      {"measurement": "AUC increase between Day 1 and Day 4", "setting": "[5]; male rats", "result": 30, "unit": "%"},
      {"measurement": "inhibition of TXB2 relative to ASDs", "setting": "[6]", "result": "inhibition of TXB2 was lower"},
      {"measurement": "H2S release", "setting": "[7]; 0.5 hrs", "result": 0.7, "unit": "µM"},
      {"measurement": "H2S release", "setting": "[7]; 1 hr", "result": 0.7, "unit": "µM"},
      {"measurement": "H2S release", "setting": "[7]; 2 hrs", "result": 1.2, "unit": "µM"},
      {"measurement": "H2S release", "setting": "[7]; 3 hrs", "result": 2.2, "unit": "µM"},
      {"measurement": "H2S release", "setting": "[7]; 4 hrs", "result": 3.7, "unit": "µM"},
      {"measurement": "H2S release", "setting": "[7]; 8 hrs", "result": 8.5, "unit": "µM"}
    ]}
  ]
}
